Values of other authors, collected in patent US9481856B2, “Pharmaceutical formulations comprising stabilized polysaccharides and source of hydrogen peroxide” (Bausch & Lomb Incorporated, priority 2008, dated 2016).

Key:
[1] = tested on: sensitive tissues of the eye

Substance	concentration causing necrosis [1]	effect on goblet cell density (goblet cell)
benzalkonium chloride [BAK]	0.05-0.1%	
α-4-{tris(2hydroxyethyl)ammonium-2-butenyl} poly {1-dimethylammonium-2-butenyl}-ω-tris(2-hydroxyethyl)ammonium chloride [polyquaternium-1]		significantly to decrease goblet cell density
